From patent publication US8207216B2, “Benzofuran-3-yl(indol-3-yl) maleimides as potent GSK3 inhibitors” (The Board of Trustees of the University of Illinois, priority 2006, dated 2012) come the findings set out here.

Some results are limits rather than exact numbers.

For test [1], the target named is T1, recombinant human His6-GSK-3β (Homo sapiens, UniProt P49841).
T1 construct: His6; purchased EMD Biosciences
The test can be described thus: GSK-3β kinase assay, [γ32P] transfer to primed glycogen synthase peptide.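 As to all read-outs here: phosphate incorporation quantified by liquid scintillation counting of the filters.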 The format is biochemical. Conditions: for IC50: 10 μM ATP, 10 μM pGSM peptide, 30 minutes at 30° C., read-out: IC50 (nM), GSK-3β inhibition.

A further test addresses CDK-2/cyclinE (Homo sapiens, UniProt P24941). In words: CDK-2/CyclinE inhibition (Reaction Biology). It is filed as biochemical. Conditions: for IC50 Ratio CDK-2/cyclinE GSK-3β: selectivity ratio; for IC50: tested at Reaction Biology, Inc.
Another test deals with PKCβ2 (Homo sapiens, UniProt P05771). In words: Inhibition of various kinases (% inhibition). The format is biochemical. The text has this: (§1) Additional examples of selectivity are illustrated in Table 4.
Another test concerns the target T2, PDK1 (Homo sapiens, UniProt O15530).
T2 sequence (O15530 1-556): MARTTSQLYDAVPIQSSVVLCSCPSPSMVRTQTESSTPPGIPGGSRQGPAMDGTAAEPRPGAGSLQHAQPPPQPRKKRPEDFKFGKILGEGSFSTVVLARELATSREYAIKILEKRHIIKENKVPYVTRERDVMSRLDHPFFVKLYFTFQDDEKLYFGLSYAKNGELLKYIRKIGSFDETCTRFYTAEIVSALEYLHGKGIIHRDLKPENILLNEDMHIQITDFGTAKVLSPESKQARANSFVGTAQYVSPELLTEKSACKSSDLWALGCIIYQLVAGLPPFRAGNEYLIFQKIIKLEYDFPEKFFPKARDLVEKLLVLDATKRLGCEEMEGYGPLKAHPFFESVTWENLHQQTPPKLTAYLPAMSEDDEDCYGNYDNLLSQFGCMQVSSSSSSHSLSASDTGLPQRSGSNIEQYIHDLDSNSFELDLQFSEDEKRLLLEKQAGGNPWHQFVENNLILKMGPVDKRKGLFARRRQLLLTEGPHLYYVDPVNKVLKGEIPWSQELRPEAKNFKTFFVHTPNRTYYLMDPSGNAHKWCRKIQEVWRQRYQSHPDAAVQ
In words: Inhibition of various kinases (% inhibition). The format is biochemical.
Text: as §1

Another test concerns the target CDK2 (Homo sapiens, UniProt P24941). In words: Inhibition of various kinases (% inhibition). It is filed as biochemical.
Text: as §1

A further test concerns the target GSK3α (Homo sapiens, UniProt P49840). The test can be described thus: Inhibition of various kinases (% inhibition). The format is biochemical.
Text: as §1

Test [2] deals with pancreatic cancer cell lines. The test can be described thus: Proliferation and survival of pancreatic cancer cells (overall statements). It is filed as cell-based. As to conditions: based on data of Table 5. Here is the method: (§2) The pancreatic cancer cell lines BxPc-3, HupT3, MiaPaCa-2, Panc 04.03, and SU86.86 were obtained from ATCC (Rockville, Md.) and were grown in medium (DMEM or RPMI) containing 10% fetal calf serum and L-glutamine. Pancreatic cancer cells were plated out in duplicate into 6-wells of a 96-well microtiter plate at 2.5−4×10^3 cells per well. Four-hours post plating, individual wells were treated with diluent (DMSO) or varying concentrations of commercial compounds, AR-A014418 and SB216763, or the indicated GSK inhibitors of this invention from a concentration of 1 nM to 50 microM. […] The IC50s were calculated using XLfit (IDBS Limited, Guildford, UK).

For a further test, the system named is MIAPaCa-2. In words: Antiproliferation MTS assay, pancreatic cancer cells. The format is cell-based. Conditions: Homo sapiens.
For the next test, the system named is BXPC-3. Described as above. The format is cell-based. Conditions: Homo sapiens.
In another test the test system is HupT3. The test is described as above. It is filed as cell-based. As to conditions: Homo sapiens.
For a further test, the system named is OVCA432. In words: Antiproliferation assay, ovarian cancer cells. As to conditions: ovarian cancer cell proliferation. The format is cell-based. As for the experimental part: as §2
(§3) Similar antiproliferation assays were performed using ovarian cancer cells. Compound 40 is of particular interest for inhibition of ovarian cancer cell proliferation.

The subject of another test is SKOV3. The test can be described thus: Antiproliferation assay, ovarian cancer cells. The format is cell-based. As to conditions: Homo sapiens, SK-OV-3; ovarian cancer cell proliferation. Here is the method:
as §2, §3

Another test addresses CDK-1/cyclinB (Homo sapiens, UniProt P06493). In words: CDK panel (Reaction Biology). The format is biochemical. Conditions: tested at Reaction Biology, Inc.
The target in another test is CDK-4/cyclinD1 (Homo sapiens, UniProt P11802). In words: CDK panel (Reaction Biology). It is filed as biochemical. Conditions: tested at Reaction Biology, Inc.
Another test deals with CDK-6/cyclinD3 (Homo sapiens, UniProt Q00534). In words: CDK panel (Reaction Biology). The format is biochemical. As to conditions: tested at Reaction Biology, Inc.
A further test has as its target CDK-2/cyclinA (Homo sapiens, UniProt P24941). In words: CDK panel (Reaction Biology). The format is biochemical. Conditions: tested at Reaction Biology, Inc.
[3] abbreviates: BXPC-3, as reported in Gaisina et al. (2009) J. Med. Chem. 52(7), 1853-1863.
[4] abbreviates: MIA PaCa-2, as reported in Gaisina et al. (2009) J. Med. Chem. 52(7), 1853-1863.
Setting [5] is: HuP-T3, as reported in Gaisina et al. (2009) J. Med. Chem. 52(7), 1853-1863.

Chain of PKCβ2 (P05771 1-673 isoform P05771-2): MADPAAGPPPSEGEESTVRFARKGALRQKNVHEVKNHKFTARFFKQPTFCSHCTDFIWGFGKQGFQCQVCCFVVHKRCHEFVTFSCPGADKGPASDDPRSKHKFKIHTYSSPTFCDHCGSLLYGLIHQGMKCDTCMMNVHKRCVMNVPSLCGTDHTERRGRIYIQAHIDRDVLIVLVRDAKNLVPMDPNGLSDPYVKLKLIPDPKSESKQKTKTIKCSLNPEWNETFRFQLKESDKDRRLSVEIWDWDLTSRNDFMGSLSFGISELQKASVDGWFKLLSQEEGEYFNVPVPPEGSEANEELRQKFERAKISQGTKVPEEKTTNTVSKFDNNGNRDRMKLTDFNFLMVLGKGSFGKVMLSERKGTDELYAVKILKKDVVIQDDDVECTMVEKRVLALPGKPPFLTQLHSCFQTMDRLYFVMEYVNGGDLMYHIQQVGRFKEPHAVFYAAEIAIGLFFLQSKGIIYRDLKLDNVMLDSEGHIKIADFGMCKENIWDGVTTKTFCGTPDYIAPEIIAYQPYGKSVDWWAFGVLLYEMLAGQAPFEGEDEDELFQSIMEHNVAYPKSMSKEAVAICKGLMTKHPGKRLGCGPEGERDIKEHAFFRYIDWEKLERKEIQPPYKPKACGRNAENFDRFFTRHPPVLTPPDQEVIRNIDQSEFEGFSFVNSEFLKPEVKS
Chain of GSK3α (P49840 whole entry, species assumed): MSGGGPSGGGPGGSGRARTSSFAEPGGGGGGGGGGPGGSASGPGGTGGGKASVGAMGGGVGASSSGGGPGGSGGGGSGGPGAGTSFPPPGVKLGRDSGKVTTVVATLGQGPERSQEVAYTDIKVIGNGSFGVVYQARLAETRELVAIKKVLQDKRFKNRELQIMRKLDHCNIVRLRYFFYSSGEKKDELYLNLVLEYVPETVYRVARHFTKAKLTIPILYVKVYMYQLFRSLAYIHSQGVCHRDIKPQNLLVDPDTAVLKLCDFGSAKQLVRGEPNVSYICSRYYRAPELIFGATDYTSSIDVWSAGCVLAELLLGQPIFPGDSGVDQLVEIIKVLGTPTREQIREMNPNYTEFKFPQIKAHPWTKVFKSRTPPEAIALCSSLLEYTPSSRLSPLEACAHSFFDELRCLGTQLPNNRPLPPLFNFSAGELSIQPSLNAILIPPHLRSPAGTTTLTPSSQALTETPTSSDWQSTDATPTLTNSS
T1 sequence (P49841 whole entry): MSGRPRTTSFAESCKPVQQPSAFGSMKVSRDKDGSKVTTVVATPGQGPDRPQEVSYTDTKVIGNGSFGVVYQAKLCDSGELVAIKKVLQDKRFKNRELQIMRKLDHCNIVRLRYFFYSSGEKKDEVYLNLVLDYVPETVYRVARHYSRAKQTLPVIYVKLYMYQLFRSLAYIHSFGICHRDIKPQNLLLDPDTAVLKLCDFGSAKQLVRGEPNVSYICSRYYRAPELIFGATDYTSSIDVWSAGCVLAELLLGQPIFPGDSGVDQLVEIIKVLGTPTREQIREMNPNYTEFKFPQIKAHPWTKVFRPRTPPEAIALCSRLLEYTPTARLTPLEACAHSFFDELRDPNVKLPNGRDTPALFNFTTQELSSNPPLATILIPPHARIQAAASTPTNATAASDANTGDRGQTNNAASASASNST
Chain of CDK-4/cyclinD1 (P11802 whole entry, species assumed): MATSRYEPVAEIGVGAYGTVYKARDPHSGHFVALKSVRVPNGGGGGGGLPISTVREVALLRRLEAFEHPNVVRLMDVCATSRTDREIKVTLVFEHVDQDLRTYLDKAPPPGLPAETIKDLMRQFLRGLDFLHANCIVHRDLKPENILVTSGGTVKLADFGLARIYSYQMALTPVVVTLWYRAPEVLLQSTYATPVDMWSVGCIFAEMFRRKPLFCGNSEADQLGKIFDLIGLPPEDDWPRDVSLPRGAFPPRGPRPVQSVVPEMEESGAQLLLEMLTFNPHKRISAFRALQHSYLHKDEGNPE
Chain of CDK-4/cyclinD1 (P24385 whole entry partner, species assumed): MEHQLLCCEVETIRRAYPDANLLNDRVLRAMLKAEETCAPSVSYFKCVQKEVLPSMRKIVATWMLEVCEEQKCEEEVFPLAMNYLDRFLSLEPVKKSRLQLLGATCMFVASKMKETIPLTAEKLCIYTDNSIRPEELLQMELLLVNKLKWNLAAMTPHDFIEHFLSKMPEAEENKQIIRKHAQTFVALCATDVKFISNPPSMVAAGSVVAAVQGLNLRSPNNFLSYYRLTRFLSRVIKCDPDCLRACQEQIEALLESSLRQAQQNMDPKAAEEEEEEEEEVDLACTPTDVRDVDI
Chain of CDK-6/cyclinD3 (Q00534 whole entry, species assumed): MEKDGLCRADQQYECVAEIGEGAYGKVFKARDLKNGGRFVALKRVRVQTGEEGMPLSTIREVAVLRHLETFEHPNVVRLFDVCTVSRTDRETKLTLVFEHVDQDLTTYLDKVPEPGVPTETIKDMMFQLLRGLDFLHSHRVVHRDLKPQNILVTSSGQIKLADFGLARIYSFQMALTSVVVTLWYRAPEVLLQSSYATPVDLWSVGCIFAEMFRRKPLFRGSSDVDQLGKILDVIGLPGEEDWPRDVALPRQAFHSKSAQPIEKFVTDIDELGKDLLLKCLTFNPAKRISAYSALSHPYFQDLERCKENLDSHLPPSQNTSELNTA
Chain of CDK-6/cyclinD3 (P30281 whole entry partner, species assumed): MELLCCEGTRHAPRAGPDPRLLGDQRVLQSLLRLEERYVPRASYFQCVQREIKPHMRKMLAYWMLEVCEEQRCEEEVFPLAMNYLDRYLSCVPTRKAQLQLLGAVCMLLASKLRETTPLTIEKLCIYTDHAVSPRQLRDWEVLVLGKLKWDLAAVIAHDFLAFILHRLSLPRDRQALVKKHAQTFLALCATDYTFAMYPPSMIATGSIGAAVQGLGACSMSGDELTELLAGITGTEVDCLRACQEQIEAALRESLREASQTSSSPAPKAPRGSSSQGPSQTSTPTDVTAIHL
Chain of CDK-1/cyclinB (P06493 whole entry, species assumed): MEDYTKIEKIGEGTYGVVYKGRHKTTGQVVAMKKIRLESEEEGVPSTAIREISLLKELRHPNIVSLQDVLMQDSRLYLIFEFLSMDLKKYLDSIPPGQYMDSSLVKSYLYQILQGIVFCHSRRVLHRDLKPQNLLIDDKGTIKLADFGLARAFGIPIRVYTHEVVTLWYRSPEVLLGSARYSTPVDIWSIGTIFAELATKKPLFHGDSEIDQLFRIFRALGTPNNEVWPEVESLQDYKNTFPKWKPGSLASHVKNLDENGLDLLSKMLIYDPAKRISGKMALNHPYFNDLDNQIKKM
Chain of CDK-1/cyclinB (P14635 whole entry partner, species assumed): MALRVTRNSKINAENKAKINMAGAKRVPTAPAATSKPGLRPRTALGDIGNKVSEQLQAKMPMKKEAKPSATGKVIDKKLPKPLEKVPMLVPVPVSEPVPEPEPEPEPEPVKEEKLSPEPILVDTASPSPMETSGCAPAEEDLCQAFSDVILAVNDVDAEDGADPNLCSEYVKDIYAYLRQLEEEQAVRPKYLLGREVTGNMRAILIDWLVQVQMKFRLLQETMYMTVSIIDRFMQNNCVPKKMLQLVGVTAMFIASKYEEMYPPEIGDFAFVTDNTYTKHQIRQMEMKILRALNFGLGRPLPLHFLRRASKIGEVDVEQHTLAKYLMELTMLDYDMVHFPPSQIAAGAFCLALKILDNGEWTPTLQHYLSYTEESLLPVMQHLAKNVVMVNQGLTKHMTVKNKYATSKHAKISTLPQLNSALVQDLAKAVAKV

With “3-Benzofuran-3-yl-4-[5-bromo-1-(3-hydroxy-propyl)-1H-indol-3-yl]-pyrrole-2,5-dione [Compound 20]”, the inhibitory constant (Ki) – broadly, a dissociation constant, usually derived from enzyme kinetics or from competition with a known ligand – in test [1] was determined as 5 nM. In addition, the IC50 (as a rule, the concentration that gives 50% inhibition) in test [1] was 7.5 ± 1.1 nM; against CDK-2/cyclinE, 1160 nM. Further, the “IC50 Ratio CDK-2/cyclinE GSK-3β” value on CDK-2/cyclinE amounted to 150. Besides, the “% Inhibition PKCβ2” value on PKCβ2 (1 μM) is reported as 8%; at PKCβ2 (10 μM), 62%. Also, the “% Inhibition PDK1” value on PDK1 (1 μM) is recorded as 7%; at PDK1 (10 μM), −1%. Also, the results for the “% Inhibition CDK2” value on CDK2 (1 μM) and on CDK2 (10 μM) were 76% and 90%, respectively. The results for the “% Inhibition GSK3α” value on GSK3α (1 μM) and on GSK3α (10 μM) were 58% and 100%, respectively.
As to `Cn1cc(C2=C(c3coc4ccccc34)C(=O)NC2=O)c2ccccc21` [Compound 1, 3-Benzofuran-3-yl-4-(1-methyl-1H-indol-3-yl)-pyrrole-2,5-dione], in test [2], the “Inhibition of pancreatic cancer cell proliferation compared with AR-A014418 and SB216768” value is recorded as “more effective inhibition of pancreatic cancer cell proliferation than these reference compounds”. Moreover, the IC50 in test [1] amounted to 35 ± 9 nM; at CDK-2/cyclinE it was 1410 nM; with MIAPaCa-2 (MIA PaCa-2, 72 hrs, MTS) it was 3 µM. In addition, the “IC50 Ratio CDK-2/cyclinE GSK-3β” value on CDK-2/cyclinE came to 40.
As for `Cn1cc(C2=C(c3coc4ccccc34)C(=O)NC2=O)c2cc(F)c(Cl)cc21` [Compound 12, 3-Benzofuran-3-yl-4-(6-chloro-5-fluoro-1-methyl-1H-indol-3-yl)-pyrrole-2,5-dione], the “Inhibition of pancreatic cancer cell proliferation compared with AR-A014418 and SB216768” value in test [2] is “more effective inhibition of pancreatic cancer cell proliferation than these reference compounds”. Further, the IC50 in the test with BXPC-3 (setting [3]) was 2 ± 0.2 µM; in [1], 184 ± 31 nM; in the test on MIAPaCa-2 (setting [4]), 3 ± 0.4 µM; with MIAPaCa-2 (MIA PaCa-2, 72 hrs, MTS) it was less than 1 µM; in the test on HupT3 (setting [5]), 2 ± 0.3 µM.
Consider `O=C1NC(=O)C(c2cn(CCCO)c3ccc(Br)cc23)=C1c1coc2ccccc12` [Compound 21, 3-Benzofuran-3-yl-4-[5-bromo-1-(3-hydroxy-propyl)-1H-indol-3-yl]-pyrrole-2,5-dione], for which the half-inhibitory concentration (IC50) in test [1] came to 1.61 ± 0.09 nM. The inhibition (commonly the drop in the measured response relative to a control, in per cent) at 1 µM was found to be 62% against PKCβ2 (1 μM), 80% at PDK1 (1 μM), 62% on CDK2 (1 μM) and 62% at GSK3α (1 μM). Moreover, the inhibition at 10 µM came to 83% against PKCβ2 (10 μM), 92% against PDK1 (10 μM), 95% on CDK2 (10 μM) and 99% at GSK3α (10 μM).
On to `Cn1cc(C2=C(c3coc4cc(CO)ccc34)C(=O)NC2=O)c2cc(Br)ccc21` [Compound 22, 3-(5-Bromo-1-methyl-1H-indol-3-yl)-4-(6-hydroxymethyl-benzofuran-3-yl)-pyrrole-2,5-dione], for which the IC50 in the test with OVCA432 was 14.2 µM; in the test with SKOV3 it was 51.5 µM; against CDK-1/cyclinB, 0.93 µM; on CDK-4/cyclinD1, 1.08 µM; on CDK-2/cyclinE, 337 nM; at CDK-6/cyclinD3, 0.51 µM. The same compound came in with an IC50 against CDK-2/cyclinA of 0.55 µM.
For `C#CCOc1ccc2c(C3=C(c4cn(C)c5ccc(Br)cc45)C(=O)NC3=O)coc2c1` [Compound 23, 3-(5-Bromo-1-methyl-1H-indol-3-yl)-4-(6-prop-2-ynyloxy-benzofuran-3-yl)-pyrrole-2,5-dione], in test [1], the IC50 was 25.3 ± 2.4 nM. Besides, the inhibition at 1 µM was found to be 3% against PKCβ2 (1 μM), 12% on PDK1 (1 μM), 22% against CDK2 (1 μM) and 84% against GSK3α (1 μM). Besides, the inhibition at 10 µM was 25% against PKCβ2 (10 μM), 45% against PDK1 (10 μM), 66% against CDK2 (10 μM) and 99% on GSK3α (10 μM).
Consider `Cn1cc(C2=C(c3coc4ccccc34)C(=O)NC2=O)c2cc(I)ccc21` [Compound 28, 3-Benzofuran-3-yl-4-(5-iodo-1-methyl-1H-indol-3-yl)-pyrrole-2,5-dione], for which the IC50 in the test on OVCA432 was 20 µM; in the test with SKOV3 it was 26.7 µM; in test [1], 15.5 ± 3.5 nM; at CDK-2/cyclinE it was 1070 nM; with HupT3 (setting [5]), greater than 50 µM; in the test on HupT3 (HuP-T3, 72 hrs, MTS) it was greater than 50 µM.
On to `N#Cc1ccc2c(c1)c(C1=C(c3coc4cc(F)c(F)cc34)C(=O)NC1=O)cn2CC1CC1` [Compound 35, 1-Cyclopropylmethyl-3-[4-(5,6-difluoro-benzofuran-3-yl)-2,5-dioxo-2,5-dihydro-1H-pyrrol-3-yl]-1H-indole-5-carbonitrile], for which the half-maximal inhibitory concentration (IC50) in the test with BXPC-3 (BXPC-3, 72 hrs, MTS) is greater than 50 µM; in [1], 131 ± 22 nM; with MIAPaCa-2 (MIA PaCa-2, 72 hrs, MTS) it was 14 µM; in the test with HupT3 (HuP-T3, 72 hrs, MTS), greater than 50 µM.
Turning to `Cn1cc(C2=C(c3coc4ccc(F)cc34)C(=O)NC2=O)c2cc(C#CC3CC3)ccc21` [Compound 38, 3-(5-Cyclopropylethynyl-1-methyl-1H-indol-3-yl)-4-(5-fluoro-benzofuran-3-yl)-pyrrole-2,5-dione], in [2], the “Inhibition of pancreatic cancer cell proliferation compared with AR-A014418 and SB216768” value is “more effective inhibition of pancreatic cancer cell proliferation than these reference compounds”. In addition, the IC50 is greater than 50 µM in the test with BXPC-3 (setting [3]); greater than 50 µM in the test on BXPC-3 (BXPC-3, 72 hrs, MTS); 16.2 ± 3.9 nM in test [1]; 34 ± 2.2 µM with MIAPaCa-2 (setting [4]); 34 µM in the test with MIAPaCa-2 (MIA PaCa-2, 72 hrs, MTS); greater than 50 µM in the test on HupT3 (setting [5]). In the test on HupT3 (HuP-T3, 72 hrs, MTS), this compound registered a concentration for half-maximal inhibition (IC50) greater than 50 µM.
On to `COc1cccc2c(C3=C(c4cn(C)c5cc(C(F)(F)F)ccc45)C(=O)NC3=O)coc12` [Compound 49, 3-(7-Methoxy-benzofuran-3-yl)-4-(1-methyl-6-trifluoromethyl-1H-indol-3-yl)-pyrrole-2,5-dione], for which the “Inhibition of pancreatic cancer cell proliferation compared with AR-A014418 and SB216768” value in test [2] is listed as “more effective inhibition of pancreatic cancer cell proliferation than these reference compounds”. Moreover, the IC50 with BXPC-3 (setting [3]) came out at 6 ± 0.8 µM; in the test with BXPC-3 (BXPC-3, 72 hrs, MTS), 6 µM; in [1] it was 831 ± 77 nM; in the test on MIAPaCa-2 (setting [4]) it was 8 ± 1.2 µM; with MIAPaCa-2 (MIA PaCa-2, 72 hrs, MTS) it was 8 µM; in the test on HupT3 (setting [5]), 6 ± 0.5 µM. The same compound gave an IC50 in the test on HupT3 (HuP-T3, 72 hrs, MTS) of 6 µM.
In the case of `Cn1cc(C2=C(c3coc4cc(F)c(F)cc34)C(=O)NC2=O)c2ccc3ccccc3c21` [Compound 55, 3-(5,6-Difluoro-benzofuran-3-yl)-4-(1-methyl-1H-benzo[g]indol-3-yl)-pyrrole-2,5-dione], the “Inhibition of pancreatic cancer cell proliferation compared with AR-A014418 and SB216768” value in [2] is given as “more effective inhibition of pancreatic cancer cell proliferation than these reference compounds”. Moreover, the IC50 with BXPC-3 (BXPC-3, 72 hrs, MTS) stood at 7 µM; in test [1], 314 ± 19 nM; with MIAPaCa-2 (setting [4]), 17 ± 3.2 µM; in the test with MIAPaCa-2 (MIA PaCa-2, 72 hrs, MTS) it was 17 µM; in the test on HupT3 (setting [5]), 6 ± 0.7 µM; with HupT3 (HuP-T3, 72 hrs, MTS), 6 µM.
